Data: article PMC8836147, “Design, Synthesis and Antifungal/Nematicidal Activity of Novel 1,2,4-Oxadiazole Derivatives Containing Amide Fragments” (International Journal of Molecular Sciences, 2022)
In brackets after ≈: the same amount, converted by molar mass.

Assays:
[1] = tested on: S. sclerotiorum; assay: In vitro mycelium growth inhibition test; assay type: cell-based; conditions: Sclerotinia sclerotiorum, mycelial growth, mean ± SD of three replicates; for inhibition at 50 µg/mL: 50 μg/mL, read-out: Inhibition Rate (%) S. sclerotiorum; for EC50: read-out: EC50 against S. sclerotiorum
Protocol: (§1) B. cinerea and S. scleotiorum were kindly provided by the Department of Pesticides, College of Plant Protection, Nanjing Agricultural University (Nanjing, China). All compounds were evaluated for mycelium growth inhibition tests against the two plant pathogenic fungi mentioned in previous reports. These two fungi were inoculated on potato dextrose agar (PDA) plates and were grown in biochemical incubators at 25 ± 1 °C for 2–4 days. The new mycelium was used to determine the antifungal activity. The target compounds were dissolved in 100 µL DMF, and they were then added into the PDA media to make the concentration 50 µg/mL. Mycelia dishes of about 5 mm in diameter were cut from the culture medium. Mycelium were picked up with a sterile inoculation needle, and the sample was inoculated in the middle of a PDA plate in a sterile environment. Afterwards, a preliminary screening of fungal activity was performed. […] Each test was carried out three times. The radial growth of the fungal colonies was gauged and recorded when the diameters of the blank control mycelia reached 5.0–5.5 cm. […] The final data were analyzed using SPSS v.25.0 (IBM, New York, NY, USA). The following formula was used to calculate the fungi inhibition rate. Inhibition rate (%) = [(Mycelium diameter of negative control − Mycelium diameter of treatment)/(Mycelium diameter of negative control − 0.5)] × 100%(1)

[2] = tested on: B. cinerea; assay: In vitro mycelium growth inhibition test; assay type: cell-based; conditions: Botrytis cinerea; 50 μg/mL; mycelial growth; mean ± SD of three replicates; read-out: Inhibition Rate (%) B. cinerea
Protocol: as §1

[3] = tested on: C. elegans; assay: microbe, parasite or virus in culture; conditions: 48 h; for mortality at 50 µg/mL / mortality at 200 µg/mL: Caenorhabditis elegans, read-out: Corrected Mortality Rate ± SD (%) C. elegans
Text: (§2) M. incognita (parasitic on tomato plants), A. besseyi (potato dextrose agar–Botrytis cinerea breeding), B. xylophilus (potato dextrose agar–Botrytis cinerea breeding), and C. elegans (nematode growth medium–inactivated Escherichia coli OP50 cultivation) were provided by the Fine Chemical Research and Development Center of Guizhou University (Guizhou, China). The methodology used for the nematocidal bioassays of these target compounds was modified in the light of the conventional methods reported in the previously published literature. The nematicidal activity of the target compounds against four nematodes was determined using 48-well biochemical culture dishes. All of the compounds were dissolved with 100 μL DMF and were diluted with 1% Tween-80 to obtain 200 and 50 μg/mL concentrations for the bioassays. Fosthiazate and tioxazafen were used as positive controls at the same concentrations, and a negative control group was prepared without compounds using the same methodology. An amount of 10 µL of nematode suspension (about 50 nematodes) and 300 µL of the trial solution were added to corresponding hole, and each treatment was set to three repetitions. All of the 48-well plates were placed in a biochemical incubator at 27 °C for dark light culture. […] Corrected mortality (%) = [(mortality of treatment % − mortality of negative control %)/(1 − mortality of negative control %)] × 100%(3)

[4] = tested on: B. xylophilus; assay: microbe, parasite or virus in culture; conditions: Bursaphelenchus xylophilus, 48 h, read-out: Corrected Mortality Rate ± SD (%) B. xylophilus
Text: as §2

[5] = tested on: M. incognita; assay: microbe, parasite or virus in culture; conditions: Meloidogyne incognita, 48 h, read-out: Corrected Mortality Rate ± SD (%) M. incognita
Text: as §2

[6] = tested on: A. besseyi; assay: microbe, parasite or virus in culture; conditions: Aphelenchoides besseyi, 48 h, read-out: Corrected Mortality Rate ± SD (%) A. besseyi
Text: as §2

[7] = MTT cytotoxicity assay; assay type: cell-based; conditions: human, L-02 normal liver cells, L-02 cells
Protocol: The human liver L-02 cells were obtained from the biology laboratory in Key Laboratory of Chemistry for Natural Products of Guizhou Province and Chinese Academy of Sciences (Guiyang, China). The cells were grown in Dulbecco’s Modified Eagle’s Medium (supplemented with 10% (v/v) FBS, 100 U/mL penicillin, and 100 μg/mL streptomycin) at 37 °C in a CO2 incubator (5% CO2 and 95% air, 95% humidity). The effect of some compounds on cell viability was determined with the MTT assay according to the previously published literature. A total of 5000 cells were inoculated in a 96-well plate and three wells of each concentration of test compound were used. A total of 24 h after inoculation, the cells had grown to ~60% confluency, and different concentrations of compounds were added, and then the cells were cultured for 48 h. DMSO was used as the control. A total of 20 μL of MTT solution was added to each well and incubated at 37 °C for 4 h. Formazan crystals were dissolved in 150 μL of DMSO and quantified using a microplate reader (Thermo Scientific, Vario Skan Flash, Shanghai Bio-Gene Technology Co., LTD, Shanghai, China) at 490 nm. The cytotoxicity was calculated according to following formula:Cytotoxicity (%) = [(OCK − OT)/OCK] × 100%(2) where OCK represents the optical density (OD) value of the blank control group, and OT represents the OD value of experimental group.

O=C(NCc1ccc(F)cc1F)c1nc(-c2ccccc2)no1 [Compound F3, N -(2,4-difluorobenzyl)-3-phenyl-1,2,4-oxadiazole-5-carboxamide]
inhibition at 50 µg/mL [1]: 84.8 ± 0.6% | EC50 [1]: 5.4 ± 0.3 µg/mL (≈ 17.1 µM) | inhibition at 50 µg/mL [2]: 56.8 ± 0.1% | Corrected Mortality Rate ± SD (%) C. elegans ([3]; 50 µg/mL): 100.0% | Corrected Mortality Rate ± SD (%) C. elegans ([3]; 200 µg/mL): 100.0% | mortality at 50 µg/mL [3]: 100% | mortality at 200 µg/mL [3]: 100% | mortality at 50 µg/mL [4]: 0% | mortality at 200 µg/mL [4]: 26.1 ± 1.2% | mortality at 50 µg/mL [5]: 13.9 ± 2.1% | mortality at 200 µg/mL [5]: 54.9 ± 3.3% | mortality at 50 µg/mL [6]: 0% | mortality at 200 µg/mL [6]: 20.1 ± 1.3% | cytotoxicity at 48 h, 50 μg/mL [7]: 7.5 ± 3.8% | cytotoxicity at 48 h, 100 μg/mL [7]: 17 ± 1.4% | cytotoxicity at 48 h, 200 μg/mL [7]: 50.8 ± 3.9%

O=C(NCCc1ncc(C(F)(F)F)cc1Cl)c1nc(-c2cccs2)no1 [Compound F14]
inhibition at 50 µg/mL [1]: 65.2 ± 0.2% | EC50 [1]: 15.3 ± 1.3 µg/mL (≈ 38 µM) | inhibition at 50 µg/mL [2]: 36.4 ± 0.2% | mortality at 50 µg/mL [3]: 70 ± 0.6% | mortality at 200 µg/mL [3]: 100% | mortality at 50 µg/mL [4]: 0% | mortality at 200 µg/mL [4]: 6.9 ± 1.8% | mortality at 50 µg/mL [5]: 0% | mortality at 200 µg/mL [5]: 12.3 ± 2.3% | mortality at 50 µg/mL [6]: 0% | mortality at 200 µg/mL [6]: 27 ± 0.8% | cytotoxicity at 48 h, 50 μg/mL [7]: 18.8 ± 2.5% | cytotoxicity at 48 h, 100 μg/mL [7]: 21.4 ± 5% | cytotoxicity at 48 h, 200 μg/mL [7]: 39.1 ± 8.4%

O=C(NCCc1ncc(C(F)(F)F)cc1Cl)c1nc(-c2ccc(Br)nc2)no1 [Compound F18]
inhibition at 50 µg/mL [1]: 34.9 ± 1.1% | inhibition at 50 µg/mL [2]: 55.9 ± 1.3% | mortality at 50 µg/mL [3]: 53.6 ± 2.4% | mortality at 200 µg/mL [3]: 90 ± 2.7% | mortality at 50 µg/mL [4]: 0% | mortality at 200 µg/mL [4]: 15.1 ± 1.2% | mortality at 50 µg/mL [5]: 0% | mortality at 200 µg/mL [5]: 36.7 ± 2.1% | mortality at 50 µg/mL [6]: 0% | mortality at 200 µg/mL [6]: 23 ± 2.3%

O=C(Nc1ccc(Cl)cc1Cl)c1nc(-c2ccc(Cl)cc2)no1 [Compound F12, 3-(4-chlorophenyl)-N-(2,4-dichlorophenyl)-1,2,4-oxadiazole-5-carboxamide]
inhibition at 50 µg/mL [1]: 24.8 ± 1.4% | inhibition at 50 µg/mL [2]: 29.1 ± 1.4% | mortality at 50 µg/mL [3]: 8.6 ± 1.6% | mortality at 200 µg/mL [3]: 47.6 ± 1.2% | mortality at 50 µg/mL [4]: 0% | mortality at 200 µg/mL [4]: 20.8 ± 2.5% | mortality at 50 µg/mL [5]: 13.8 ± 2.3% | mortality at 200 µg/mL [5]: 54.8 ± 2.5% | mortality at 50 µg/mL [6]: 0% | mortality at 200 µg/mL [6]: 18.8 ± 1.1%

O=C(NCCc1ncc(C(F)(F)F)cc1Cl)c1nc(-c2ccc(Cl)cc2)no1 [Compound F10, N-(2-(3-chloro-5-(trifluoromethyl)pyridin-2-yl)ethyl)-3-(4-chlorophenyl)-1,2,4-oxadiazole-5-carboxamide]
inhibition at 50 µg/mL [1]: 48.6 ± 1.2% | inhibition at 50 µg/mL [2]: 24.2 ± 1.7% | mortality at 50 µg/mL [3]: 69.3 ± 1.8% | mortality at 200 µg/mL [3]: 100% | mortality at 50 µg/mL [4]: 0% | mortality at 200 µg/mL [4]: 12.1 ± 1.7% | mortality at 50 µg/mL [5]: 0% | mortality at 200 µg/mL [5]: 15.8 ± 3.5% | mortality at 50 µg/mL [6]: 0% | mortality at 200 µg/mL [6]: 23.6 ± 2.2%
